According to patent US7678788B2, “Diazabicyclic aryl derivatives” (Neurosearch A/S, priority 2003, dated 2010):

Target: T1, α7-subtype of nicotinic receptors (Rattus norvegicus, UniProt Q05941)
T1 construct: Cerebral cortices from male Wistar rats (150-250 g) are homogenised; from tissue; host or cells: rat cerebral cortex membrane homogenate
Test: In vitro inhibition of 3H-α-bungarotoxine binding in rat brain
Settings: rat cerebral cortex homogenate; 3H-α-bungarotoxine 2 nM; 2 hours at 37° C.

T1 sequence (Q05941 23-502): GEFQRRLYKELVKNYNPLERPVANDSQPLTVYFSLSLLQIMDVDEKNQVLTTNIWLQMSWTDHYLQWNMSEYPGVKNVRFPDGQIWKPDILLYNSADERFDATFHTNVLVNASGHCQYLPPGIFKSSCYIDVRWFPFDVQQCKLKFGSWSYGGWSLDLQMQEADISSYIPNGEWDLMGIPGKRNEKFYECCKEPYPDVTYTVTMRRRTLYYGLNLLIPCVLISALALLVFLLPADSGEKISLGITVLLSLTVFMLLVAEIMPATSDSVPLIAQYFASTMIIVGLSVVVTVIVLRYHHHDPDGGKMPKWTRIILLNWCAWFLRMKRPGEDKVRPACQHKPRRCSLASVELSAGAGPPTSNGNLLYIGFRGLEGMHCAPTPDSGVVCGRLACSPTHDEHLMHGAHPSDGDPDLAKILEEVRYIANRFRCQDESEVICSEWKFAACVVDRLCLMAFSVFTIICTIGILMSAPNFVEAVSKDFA

SMILES | IC50 [nM]
O=C(c1ccc(-c2cccc(C(F)(F)F)c2)o1)N1CCN2CCC1CC2 [Compound A5, (1,4-Diaza-bicyclo[3.2.2]-non-4-yl)-5-(3-trifluoromethylphenyl)-furan-2-yl-methanone] | 51
O=CNc1ccc(-c2ccc(C(=O)N3CCN4CCC3CC4)o2)cc1 [Compound F1, (1,4-Diaza-bicyclo[3.2.2]-non-4-yl)-5-(4-formylaminophenyl)-furan-2-yl-methanone] | 17
O=C(c1ccco1)N1CCN2CCC1CC2 [Compound A1, (1,4-Diaza-bicyclo[3.2.2]-non-4-yl)-furan-2-yl-methanone] | 540
Nc1cccc(-c2ccc(C(=O)N3CCN4CCC3CC4)o2)c1 [Compound C3, (1,4-Diaza-bicyclo[3.2.2]-non-4-yl)-5-(3-aminophenyl)-furan-2-yl-methanone] | 80
